Test results published in article PMC7689250, “Synthetic Peptide Libraries Designed From a Minimal Alpha-Helical Domain of AS-48-Bacteriocin Homologs Exhibit Potent Antibacterial Activity” (Frontiers in Microbiology, 2020).
Read-outs that look alike come from different tables or passages of the source. Residues, ends and D or L forms follow the SMILES beside them.

How the values were obtained:
E. coli (BL21) = assay type: cell-based, Escherichia coli; settings: for MBC: BL21; for MIC: BL21, 16 h
Protocol: (§1) Peptides were screened against Escherichia coli (BL21), Streptococcus pyogenes (M1T1 5448, hereby referred to as M1), Pseudomonas aeruginosa (PAO1), and Staphylococcus aureus (USA300). Overnight bacterial cultures were grown in optimal media for each species: Luria-Bertani (LB) broth for E. coli, P. aeruginosa, and S. aureus, and Todd-Hewitt (TH) broth for S. pyogenes. Cultures were pelleted and re-suspended in Mueller-Hinton (MH) broth for peptide screens or minimal inhibitory concentration (MIC) assays, with 1 × 10^6 CFU/mL bacteria added per well ([Wiegand et al., 2008]). MICs for each parent peptide were identified against each bacterial strain as previously described ([Fields et al., 2018]). Members of each peptide library were screened against each bacterial strain at half of the MIC of the corresponding parent peptide to identify library members with increased antimicrobial activity relative to the parent peptide. […] Minimal bactericidal concentrations (MBCs) were determined following the respective MIC assays by plating aliquots from wells corresponding to each peptide concentration from the 96-well plate used for the MIC on species-appropriate agar. Plates were incubated at 37°C overnight, and MBCs were identified as the lowest concentrations of peptide at which no colonies were obtained. A Synergy H1 Microplate Reader (BioTek, Winooski, VT, United States) was used to determine the MICs and identify peptides with greater antimicrobial activity than the corresponding parent peptide by measuring OD 600 of the bacterial cultures in 96-well microtiter plates.

S. pyogenes (M1) = assay type: cell-based, Streptococcus pyogenes; settings: for MBC: M1
Protocol: as §1

S. aureus (USA300) = assay type: cell-based, Staphylococcus aureus; settings: for MBC: USA300; for MIC: USA300, 16 h
Protocol: as §1

P. aeruginosa (PAO1) = assay type: cell-based, Pseudomonas aeruginosa; settings: for MBC: PAO1; for MIC: PAO1, 16 h
Protocol: as §1

sheep erythrocytes = assay type: cell-based; settings: red cells of sheep, 1 h
Protocol: To determine if peptide variants were hemolytic, fresh defibrinated whole sheep blood (Hardy Diagnostics) was washed three times in cold PBS, and washed blood was diluted 1:25 in PBS. Treatments were applied at a 1:10 ratio of sample:blood, where the sample was either 10% Triton, PBS, or a specific peptide concentration corresponding to concentrations used in the MIC assays. Treatments were incubated with the blood for 1 h at 37°C. Following incubation, samples were centrifuged at […] for 10 min at 4°C, and the absorbance of the supernatants at 450 nm was measured on the Synergy H1 Microplate Reader to measure the release of hemoglobin. Percent hemolysis was quantified by normalizing to the negative and positive controls.

Row | SMILES | MBC (E. coli (BL21)) | MIC (E. coli (BL21)) | MBC (S. pyogenes (M1)) | MIC (S. pyogenes (M1); S. pyogenes M1) | MBC (S. aureus (USA300)) | MIC (S. aureus (USA300)) | MBC (P. aeruginosa (PAO1)) | MIC (P. aeruginosa (PAO1)) | Percent Hemolysis (sheep erythrocytes) | MIC (S. pyogenes (M1); M1, 16 h)
1 | CC[C@H](C)[C@H](NC(=O)[C@H](CCCCN)NC(=O)[C@H](CCCCN)NC(=O)CNC(=O)[C@H](CCC(=O)O)NC(=O)[C@H](CC(N)=O)NC(=O)[C@@H](NC(=O)[C@@H](NC(=O)[C@H](CCCCN)NC(=O)[C@H](CCCCN)NC(=O)[C@H](CC(C)C)NC(=O)[C@H](CCCNC(=N)N)NC(=O)[C@H](CC(N)=O)NC(=O)[C@H](Cc1ccccc1)NC(=O)[C@@H](NC(=O)[C@H](CCCCN)NC(=O)[C@H](CCC(=O)O)NC(=O)[C@@H](NC(=O)CNC(=O)[C@H](C)N)[C@@H](C)O)[C@@H](C)CC)[C@@H](C)O)[C@@H](C)CC)C(=O)N[C@@H](C)C(=O)N[C@@H](CCCCN)C(=O)N[C@@H](CCCNC(=N)N)C(=O)N[C@@H](Cc1c[nH]c2ccccc12)C(=O)N[C@@H](Cc1c[nH]c2ccccc12)C(=O)O [Syn-larvacin-72] (H-AGTEKIFNRLKKTINEGKKIAKRWW-OH; N-terminus and C-terminus assumed) | 0.25 µM | 0.25 µM | 2 µM | 0.125 µM | >128 µM | >128 µM | 64 µM | 32 µM | 26.3% | –
2 | CC[C@H](C)[C@H](NC(=O)[C@H](CCCCN)NC(=O)[C@H](C)NC(=O)[C@H](CCCNC(=N)N)NC(=O)[C@H](CCCCN)NC(=O)CNC(=O)[C@H](CCCCN)NC(=O)[C@H](CCC(=O)O)NC(=O)[C@H](CCC(N)=O)NC(=O)[C@@H](NC(=O)[C@H](CCCCN)NC(=O)[C@H](CCCCN)NC(=O)[C@H](CCCCN)NC(=O)[C@H](CC(C)C)NC(=O)[C@H](CCCNC(=N)N)NC(=O)[C@H](CCC(N)=O)NC(=O)[C@H](Cc1ccccc1)NC(=O)[C@@H](NC(=O)[C@@H](NC(=O)[C@H](CCC(=O)O)NC(=O)[C@H](CCCCN)NC(=O)CNC(=O)[C@H](C)N)[C@@H](C)O)[C@@H](C)CC)[C@@H](C)CC)C(=O)N[C@@H](C)C(=O)N[C@@H](Cc1c[nH]c2ccccc12)C(=O)O [Syn-larvacin-91] (H-AGKETIFQRLKKKIQEKGKRAKIAW-OH; N-terminus and C-terminus assumed) | 2 µM | 1 µM | 0.5 µM | – | 2 µM | 2 µM | 64 µM | 32 µM | 23.4% | 0.5 µM
3 | CC[C@H](C)[C@H](NC(=O)[C@H](CCCCN)NC(=O)[C@H](C)NC(=O)[C@H](CCCNC(=N)N)NC(=O)[C@H](CCCCN)NC(=O)[C@H](CCCCN)NC(=O)CNC(=O)[C@H](CCC(=O)O)NC(=O)[C@H](CCC(N)=O)NC(=O)[C@@H](NC(=O)[C@H](CCCCN)NC(=O)[C@H](CCCCN)NC(=O)[C@H](CCCCN)NC(=O)[C@H](CC(C)C)NC(=O)[C@H](Cc1ccccc1)NC(=O)[C@H](CCC(N)=O)NC(=O)[C@H](CCCNC(=N)N)NC(=O)[C@@H](NC(=O)[C@@H](NC(=O)[C@H](CCC(=O)O)NC(=O)[C@H](CCCCN)NC(=O)CNC(=O)[C@H](C)N)[C@@H](C)O)[C@@H](C)CC)[C@@H](C)CC)C(=O)N[C@@H](C)C(=O)N[C@@H](Cc1c[nH]c2ccccc12)C(=O)O [Syn-larvacin-92] (H-AGKETIRQFLKKKIQEGKKRAKIAW-OH; N-terminus and C-terminus assumed) | 2 µM | 2 µM | 1 µM | – | 8 µM | 2 µM | 128 µM | 64 µM | 29.9% | 1 µM
4 | CC[C@H](C)[C@H](NC(=O)[C@H](CCCNC(=N)N)NC(=O)[C@H](CCC(N)=O)NC(=O)[C@@H](NC(=O)CNC(=O)[C@@H](N)Cc1c[nH]c2ccccc12)[C@@H](C)O)C(=O)N[C@@H](CCCCN)C(=O)N[C@@H](C)C(=O)N[C@@H](Cc1ccc(O)cc1)C(=O)N[C@@H](CC(C)C)C(=O)N[C@@H](CCCNC(=N)N)C(=O)N[C@@H](CCCNC(=N)N)C(=O)N[C@@H](CCC(=O)O)C(=O)N[C@H](C(=O)N[C@@H](CCCNC(=N)N)C(=O)N[C@@H](CCCCN)C(=O)N[C@@H](CCCNC(=N)N)C(=O)NCC(=O)N[C@@H](CCCNC(=N)N)C(=O)N[C@@H](CCCCN)C(=O)N[C@@H](C)C(=O)N[C@H](C(=O)N[C@H](C(=O)N[C@@H](C)C(=O)N[C@@H](Cc1c[nH]c2ccccc12)C(=O)O)[C@@H](C)CC)C(C)C)[C@@H](C)CC [Syn-sordellicin-11] (H-WGTQRIKAYLRREIRKRGRKAVIAW-OH; N-terminus and C-terminus assumed) | 2 µM | 2 µM | 0.5 µM | 0.5 µM | >128 µM | >128 µM | 8 µM | 8 µM | 21.3% | –
5 | CC[C@H](C)[C@H](NC(=O)[C@H](CCC(=O)O)NC(=O)[C@H](CCCNC(=N)N)NC(=O)[C@H](CCCNC(=N)N)NC(=O)[C@H](CC(C)C)NC(=O)[C@H](Cc1ccc(O)cc1)NC(=O)[C@H](CCCCN)NC(=O)[C@H](C)NC(=O)[C@@H](NC(=O)[C@@H](NC(=O)[C@H](CCC(N)=O)NC(=O)[C@H](CCCNC(=N)N)NC(=O)[C@H](Cc1c[nH]c2ccccc12)NC(=O)[C@H](C)N)[C@@H](C)O)[C@@H](C)CC)C(=O)N[C@@H](CCCNC(=N)N)C(=O)N[C@@H](CCCCN)C(=O)N[C@@H](CCCNC(=N)N)C(=O)NCC(=O)N[C@@H](CCCNC(=N)N)C(=O)N[C@@H](CCCCN)C(=O)N[C@@H](C)C(=O)N[C@H](C(=O)N[C@H](C(=O)N[C@@H](C)C(=O)N[C@@H](Cc1c[nH]c2ccccc12)C(=O)O)[C@@H](C)CC)C(C)C [Syn-sordellicin-18] (H-AWRQTIAKYLRREIRKRGRKAVIAW-OH; N-terminus and C-terminus assumed) | 1 µM | 1 µM | 4 µM | – | 32 µM | 32 µM | 8 µM | 4 µM | 14.1% | 4 µM
6 | CC[C@H](C)[C@H](NC(=O)[C@H](Cc1c[nH]c2ccccc12)NC(=O)[C@H](CCC(N)=O)NC(=O)[C@H](CCCNC(=N)N)NC(=O)CNC(=O)[C@H](C)N)C(=O)N[C@@H](CCCCN)C(=O)N[C@@H](C)C(=O)N[C@@H](Cc1ccc(O)cc1)C(=O)N[C@@H](CC(C)C)C(=O)N[C@@H](CCCNC(=N)N)C(=O)N[C@@H](CCCNC(=N)N)C(=O)N[C@@H](CCC(=O)O)C(=O)N[C@H](C(=O)N[C@@H](CCCNC(=N)N)C(=O)N[C@@H](CCCCN)C(=O)N[C@@H](CCCNC(=N)N)C(=O)NCC(=O)N[C@@H](CCCNC(=N)N)C(=O)N[C@@H](CCCCN)C(=O)N[C@@H](C)C(=O)N[C@H](C(=O)N[C@H](C(=O)N[C@@H](C)C(=O)N[C@@H](Cc1c[nH]c2ccccc12)C(=O)O)[C@@H](C)CC)C(C)C)[C@@H](C)CC [Syn-sordellicin-41] (H-AGRQWIKAYLRREIRKRGRKAVIAW-OH; N-terminus and C-terminus assumed) | 2 µM | 2 µM | 4 µM | – | >128 µM | >128 µM | 16 µM | 16 µM | 15.5% | 2 µM
7 | CC[C@H](C)[C@H](NC(=O)[C@H](CCC(=O)O)NC(=O)[C@H](CCCNC(=N)N)NC(=O)[C@H](CCCNC(=N)N)NC(=O)[C@H](CC(C)C)NC(=O)[C@H](Cc1ccc(O)cc1)NC(=O)[C@H](CCCCN)NC(=O)[C@H](C)NC(=O)[C@@H](NC(=O)[C@@H](NC(=O)[C@H](CCC(N)=O)NC(=O)[C@H](CCCNC(=N)N)NC(=O)CNC(=O)[C@H](C)N)[C@@H](C)O)[C@@H](C)CC)C(=O)N[C@@H](CCCNC(=N)N)C(=O)N[C@@H](CCCCN)C(=O)N[C@@H](CCCNC(=N)N)C(=O)NCC(=O)N[C@@H](CCCNC(=N)N)C(=O)N[C@@H](CCCCN)C(=O)N[C@@H](Cc1c[nH]c2ccccc12)C(=O)N[C@H](C(=O)N[C@H](C(=O)N[C@@H](C)C(=O)N[C@@H](Cc1c[nH]c2ccccc12)C(=O)O)[C@@H](C)CC)C(C)C [Syn-sordellicin-50] (H-AGRQTIAKYLRREIRKRGRKWVIAW-OH; N-terminus and C-terminus assumed) | 1 µM | 1 µM | 2 µM | – | >128 µM | >128 µM | 16 µM | 8 µM | 11.5% | 2 µM
